Tested on: 857933-349-R-J2-PDC complex spheroid viability
Experiment: Anticancer human tumor 857933-349-R-J2-PDC patient-derived colon adenocarcinoma cell line growth inhibition [POLQ]
Conditions: for IC50: curve of first compound; for viability, T/C: stronger effect = lower value
How it was run: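 Growth inhibition in 3D: complex spheroids (tumor PDC, HUVEC, MSC) treated with POLQ inhibitor combinations; where Cmax unknown, highest tested concentration 10 microM, except SN-38 at 1 microM.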

[1] = second compound 0.0316 µM, first compound 0.00316 µM
[2] = second compound 0.0316 µM, first compound 0.01 µM
[3] = second compound 0.0316 µM, first compound 0.0316 µM
[4] = second compound 0.0316 µM, first compound 0.1 µM
[5] = second compound 0.0316 µM, first compound 0.316 µM
[6] = second compound 0.0316 µM, first compound 1 µM
[7] = second compound 0.1 µM, first compound 0.00316 µM
[8] = second compound 0.1 µM, first compound 0.01 µM
[9] = second compound 0.1 µM, first compound 0.0316 µM
[10] = second compound 0.1 µM, first compound 0.1 µM
[11] = second compound 0.1 µM, first compound 0.316 µM
[12] = second compound 0.1 µM, first compound 1 µM
[13] = second compound 0.316 µM, first compound 0.00316 µM
[14] = second compound 0.316 µM, first compound 0.01 µM
[15] = second compound 0.316 µM, first compound 0.0316 µM
[16] = second compound 0.316 µM, first compound 0.1 µM
[17] = second compound 0.316 µM, first compound 0.316 µM
[18] = second compound 0.316 µM, first compound 1 µM
[19] = second compound 1 µM, first compound 0.00316 µM
[20] = second compound 1 µM, first compound 0.01 µM
[21] = second compound 1 µM, first compound 0.0316 µM
[22] = second compound 1 µM, first compound 0.1 µM
[23] = second compound 1 µM, first compound 0.316 µM
[24] = second compound 1 µM, first compound 1 µM
[25] = second compound 3.16 µM, first compound 0.00316 µM
[26] = second compound 3.16 µM, first compound 0.01 µM
[27] = second compound 3.16 µM, first compound 0.0316 µM
[28] = second compound 3.16 µM, first compound 0.1 µM
[29] = second compound 3.16 µM, first compound 0.316 µM
[30] = second compound 3.16 µM, first compound 1 µM
[31] = second compound 10 µM, first compound 0.00316 µM
[32] = second compound 10 µM, first compound 0.01 µM
[33] = second compound 10 µM, first compound 0.0316 µM
[34] = second compound 10 µM, first compound 0.1 µM
[35] = second compound 10 µM, first compound 0.316 µM
[36] = second compound 10 µM, first compound 1 µM
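Note: spheroids exposed to compounds for seven days before readout.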

C=CCn1c(=O)c2cnc(Nc3ccc(N4CCN(C)CC4)cc3)nc2n1-c1cccc(C(C)(C)O)n1 + Nc1ccc(C#CCN(C(=O)Cc2ncc(C(F)(F)F)cc2C(F)(F)F)c2ccc(F)cc2)nn1
IC50 (second compound 0.0316 µM): > 1000 nM | IC50 (second compound 0.1 µM): > 1000 nM | IC50 (second compound 0.316 µM): > 1000 nM | IC50 (second compound 1 µM): > 1000 nM | IC50 (second compound 3.16 µM): > 1000 nM | IC50 (second compound 10 µM): > 1000 nM | viability, T/C [1]: 105% | viability, T/C [2]: 98.7% | viability, T/C [3]: 91.4% | viability, T/C [4]: 105% | viability, T/C [5]: 88.8% | viability, T/C [6]: 74.7% | viability, T/C [7]: 105% | viability, T/C [8]: 122% | viability, T/C [9]: 95.4% | viability, T/C [10]: 91.9% | viability, T/C [11]: 88.1% | viability, T/C [12]: 73.8% | viability, T/C [13]: 60.7% | viability, T/C [14]: 95.8% | viability, T/C [15]: 94% | viability, T/C [16]: 88.7% | viability, T/C [17]: 103% | viability, T/C [18]: 75.4% | viability, T/C [19]: 96.5% | viability, T/C [20]: 93.6% | viability, T/C [21]: 90.6% | viability, T/C [22]: 106% | viability, T/C [23]: 102% | viability, T/C [24]: 74.4% | viability, T/C [25]: 102% | viability, T/C [26]: 93.2% | viability, T/C [27]: 74.9% | viability, T/C [28]: 101% | viability, T/C [29]: 68.8% | viability, T/C [30]: 75.9% | viability, T/C [31]: 113% | viability, T/C [32]: 106% | viability, T/C [33]: 94% | viability, T/C [34]: 78.7% | viability, T/C [35]: 85.9% | viability, T/C [36]: 66.5%

CC[C@@]1(O)C(=O)OCc2c1cc1n(c2=O)Cc2cc3c(CN(C)C)c(O)ccc3nc2-1 + Nc1ccc(C#CCN(C(=O)Cc2ncc(C(F)(F)F)cc2C(F)(F)F)c2ccc(F)cc2)nn1
IC50 (second compound 0.0316 µM): 71.7 nM | IC50 (second compound 0.1 µM): > 100 nM | IC50 (second compound 0.316 µM): 77.3 nM | IC50 (second compound 1 µM): 86.9 nM | IC50 (second compound 3.16 µM): 63.8 nM | IC50 (second compound 10 µM): 51.9 nM | viability, T/C (second compound 0.0316 µM, first compound 0.000316 µM): 89.2% | viability, T/C (second compound 0.0316 µM, first compound 0.001 µM): 103% | viability, T/C [1]: 88.6% | viability, T/C [2]: 70.7% | viability, T/C [3]: 66.2% | viability, T/C [4]: 44% | viability, T/C (second compound 0.1 µM, first compound 0.000316 µM): 98.9% | viability, T/C (second compound 0.1 µM, first compound 0.001 µM): 95.7% | viability, T/C [7]: 94.8% | viability, T/C [8]: 82.3% | viability, T/C [9]: 71% | viability, T/C [10]: 50.6% | viability, T/C (second compound 0.316 µM, first compound 0.000316 µM): 107% | viability, T/C (second compound 0.316 µM, first compound 0.001 µM): 121% | viability, T/C [13]: 87.5% | viability, T/C [14]: 87% | viability, T/C [15]: 73.3% | viability, T/C [16]: 43% | viability, T/C (second compound 1 µM, first compound 0.000316 µM): 99.5% | viability, T/C (second compound 1 µM, first compound 0.001 µM): 100% | viability, T/C [19]: 97.2% | viability, T/C [20]: 94.4% | viability, T/C [21]: 74% | viability, T/C [22]: 46.7% | viability, T/C (second compound 3.16 µM, first compound 0.000316 µM): 92.6% | viability, T/C (second compound 3.16 µM, first compound 0.001 µM): 96% | viability, T/C [25]: 92.1% | viability, T/C [26]: 76.6% | viability, T/C [27]: 61.8% | viability, T/C [28]: 42.9% | viability, T/C (second compound 10 µM, first compound 0.000316 µM): 75.2% | viability, T/C (second compound 10 µM, first compound 0.001 µM): 86.1% | viability, T/C [31]: 92.5% | viability, T/C [32]: 76.6% | viability, T/C [33]: 61.3% | viability, T/C [34]: 35.6%

CCc1c2c(nc3ccc(O)cc13)-c1cc3c(c(=O)n1C2)COC(=O)[C@]3(O)CC + Nc1ccc(C#CCN(C(=O)Cc2ncc(C(F)(F)F)cc2C(F)(F)F)c2ccc(F)cc2)nn1
IC50 (second compound 0.0316 µM): 14.9 nM | IC50 (second compound 0.1 µM): 13.6 nM | IC50 (second compound 0.316 µM): 10.9 nM | IC50 (second compound 1 µM): 12.7 nM | IC50 (second compound 3.16 µM): 13.2 nM | IC50 (second compound 10 µM): 12.7 nM | viability, T/C [1]: 65.4% | viability, T/C [2]: 63.6% | viability, T/C [3]: 27.2% | viability, T/C [4]: 18.6% | viability, T/C [5]: 10.8% | viability, T/C [6]: 2.67% | viability, T/C [7]: 64.9% | viability, T/C [8]: 60.5% | viability, T/C [9]: 23.2% | viability, T/C [10]: 14.3% | viability, T/C [11]: 9.81% | viability, T/C [12]: 2.89% | viability, T/C [13]: 68% | viability, T/C [14]: 53.6% | viability, T/C [15]: 21.7% | viability, T/C [16]: 14.7% | viability, T/C [17]: 9.84% | viability, T/C [18]: 1.82% | viability, T/C [19]: 68.1% | viability, T/C [20]: 58.1% | viability, T/C [21]: 24.9% | viability, T/C [22]: 15.6% | viability, T/C [23]: 8.49% | viability, T/C [24]: 2.23% | viability, T/C [25]: 66.2% | viability, T/C [26]: 58.9% | viability, T/C [27]: 27.4% | viability, T/C [28]: 17.6% | viability, T/C [29]: 12.5% | viability, T/C [30]: 3.21% | viability, T/C [31]: 70.2% | viability, T/C [32]: 57.9% | viability, T/C [33]: 25.9% | viability, T/C [34]: 20.9% | viability, T/C [35]: 12.7% | viability, T/C [36]: 5.79%

CNCc1ccc(-c2[nH]c3cc(F)cc4c3c2CCNC4=O)cc1 + Nc1ccc(C#CCN(C(=O)Cc2ncc(C(F)(F)F)cc2C(F)(F)F)c2ccc(F)cc2)nn1
IC50 (second compound 0.0316 µM): > 10000 nM | IC50 (second compound 0.1 µM): > 10000 nM | IC50 (second compound 0.316 µM): > 10000 nM | IC50 (second compound 1 µM): > 10000 nM | IC50 (second compound 3.16 µM): > 10000 nM | IC50 (second compound 10 µM): > 10000 nM | viability, T/C [3]: 91.7% | viability, T/C [4]: 101% | viability, T/C [5]: 92% | viability, T/C [6]: 97.1% | viability, T/C (second compound 0.0316 µM, first compound 3.16 µM): 101% | viability, T/C (second compound 0.0316 µM, first compound 10 µM): 98.2% | viability, T/C [9]: 94.5% | viability, T/C [10]: 78.7% | viability, T/C [11]: 85.6% | viability, T/C [12]: 110% | viability, T/C (second compound 0.1 µM, first compound 3.16 µM): 103% | viability, T/C (second compound 0.1 µM, first compound 10 µM): 93.7% | viability, T/C [15]: 103% | viability, T/C [16]: 102% | viability, T/C [17]: 95.3% | viability, T/C [18]: 94.9% | viability, T/C (second compound 0.316 µM, first compound 3.16 µM): 107% | viability, T/C (second compound 0.316 µM, first compound 10 µM): 90.6% | viability, T/C [21]: 93.4% | viability, T/C [22]: 101% | viability, T/C [23]: 98.9% | viability, T/C [24]: 107% | viability, T/C (second compound 1 µM, first compound 3.16 µM): 94.3% | viability, T/C (second compound 1 µM, first compound 10 µM): 98.2% | viability, T/C [27]: 96.3% | viability, T/C [28]: 84.9% | viability, T/C [29]: 92.1% | viability, T/C [30]: 104% | viability, T/C (second compound 3.16 µM, first compound 3.16 µM): 97.7% | viability, T/C (second compound 3.16 µM, first compound 10 µM): 101% | viability, T/C [33]: 91.6% | viability, T/C [34]: 99% | viability, T/C [35]: 91.2% | viability, T/C [36]: 93% | viability, T/C (second compound 10 µM, first compound 3.16 µM): 100% | viability, T/C (second compound 10 µM, first compound 10 µM): 92%
